Laboratory results taken from ChEMBL document CHEMBL6153138, “Discovery of Novel Aromatic Urea-Imidazole Salt Derivatives for Cancer Therapy via Targeting ERK1/2” (J Med Chem, 2025).
Calls of active or inactive are those of the source. The calls are words filed in the database; no cut-off is given here.

Experiments:
[1] = biological target: Mitogen-activated protein kinase 3 (Homo sapiens, UniProt P27361); assay: Inhibition of ERK1 (unknown origin) incubated for 60 mins by luminescence based ADP-Glo kinase assay
[2] = biological target: Mitogen-activated protein kinase 1 (Homo sapiens, UniProt P28482); assay: Inhibition of ERK2 (unknown origin) incubated for 60 mins by luminescence based ADP-Glo kinase assay
4T1 [3] = assay: Antiproliferative activity against mouse 4T1 cells incubated for 48 hrs by CCK-8 method; format: functional, cell-based; conditions: 4T1, 48 h
HepG2 [4] = assay: Antiproliferative activity against human HepG2 cells incubated for 48 hrs by CCK-8 method; format: functional, cell-based; conditions: HepG2, 48 h
HCC1937 = assay: Antiproliferative activity against human HCC1937 cells incubated for 48 hrs by CCK-8 method; format: functional, cell-based; conditions: HCC1937, 48 h
MCF7 [5] = assay: Antiproliferative activity against human MCF7 cells incubated for 48 hrs by CCK-8 method; format: functional, cell-based; conditions: MCF7, 48 h
5637 [6] = assay: Antiproliferative activity against human 5637 cells incubated for 48 hrs by CCK-8 method; format: functional, cell-based; conditions: Homo sapiens, 5637, 48 h
MDA-MB-468 = assay: Antiproliferative activity against human MDA-MB-468 cells incubated for 48 hrs by CCK-8 method; format: functional, cell-based; conditions: MDA-MB-468, 48 h
MCF-10A = assay: Antiproliferative activity against human MCF-10A cells incubated for 48 hrs by CCK-8 method; format: functional, cell-based
A549 [7] = assay: Growth inhibition of human A549 cells at 5 uM incubated for 48 hrs by CCK-8 method relative to control; format: functional; conditions: read-out: GI
MCF7 [8] = assay: Growth inhibition of human MCF7 cells at 5 uM incubated for 48 hrs by CCK-8 method relative to control; format: functional; conditions: read-out: GI
5637 [9] = assay: Growth inhibition of human 5637 cells at 5 uM incubated for 48 hrs by CCK-8 method relative to control; format: functional; conditions: read-out: GI
HepG2 [10] = assay: Growth inhibition of human HepG2 cells at 5 uM incubated for 48 hrs by CCK-8 method relative to control; format: functional; conditions: read-out: GI
A549 [11] = assay: Antiproliferative activity against human A549 cells incubated for 48 hrs by CCK-8 method; format: functional, cell-based; conditions: A549, 48 h
MCF7 [12] = assay: Induction of autophagy in human MCF7 cells assessed as increase in Beclin-1 level at 5 uM by Western blot analysis; format: functional, cell-based
MCF7 [13] = assay: Induction of autophagy in human MCF7 cells assessed as increase in LC3B-II level at 5 uM by Western blot analysis; format: functional, cell-based
4T1 [14] = assay: Antitumor activity against mouse 4T1 cells implanted in female BALB/c mouse model assessed as tumor growth inhibition at 50 mg/kg, ip qd measured for 18 days relative to control; format: functional; conditions: 4T1, 432 h, time 18 day, read-out: TGI
MCF7 [15] = assay: Activation of ERK1/2 pathway in human MCF7 cells assessed as increase in EGF-induced c-Myc phosphorylation at 5 uM incubated for 30 mins by Western blot analysis; format: cell-based
MCF7 [16] = assay: Activation of ERK1/2 pathway in human MCF7 cells assessed as increase in EGF-induced p90RSK phosphorylation at 5 uM incubated for 30 mins by Western blot analysis; format: cell-based
MCF7 [17] = assay: Induction of autophagy in human MCF7 cells assessed as increase in ATG5 level at 5 uM by Western blot analysis; format: functional, cell-based
MCF7 [18] = assay: Activation of ERK1/2 pathway in human MCF7 cells assessed as increase in EGF-induced ERK phosphorylation at 5 uM incubated for 30 mins by Western blot analysis; format: cell-based; conditions: filed as activator

Mitogen-activated protein kinase 3, sequence (P27361 whole entry): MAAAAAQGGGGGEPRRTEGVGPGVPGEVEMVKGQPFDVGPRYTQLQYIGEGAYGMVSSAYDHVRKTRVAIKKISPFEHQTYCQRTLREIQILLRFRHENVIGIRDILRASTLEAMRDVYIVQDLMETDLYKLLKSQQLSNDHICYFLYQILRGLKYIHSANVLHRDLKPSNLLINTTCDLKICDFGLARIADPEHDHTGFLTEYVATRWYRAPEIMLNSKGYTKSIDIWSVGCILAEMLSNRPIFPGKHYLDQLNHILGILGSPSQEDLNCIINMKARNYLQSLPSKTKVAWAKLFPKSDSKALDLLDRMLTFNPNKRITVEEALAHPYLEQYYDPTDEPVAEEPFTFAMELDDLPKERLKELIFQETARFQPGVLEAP
Mitogen-activated protein kinase 1, sequence (P28482 whole entry): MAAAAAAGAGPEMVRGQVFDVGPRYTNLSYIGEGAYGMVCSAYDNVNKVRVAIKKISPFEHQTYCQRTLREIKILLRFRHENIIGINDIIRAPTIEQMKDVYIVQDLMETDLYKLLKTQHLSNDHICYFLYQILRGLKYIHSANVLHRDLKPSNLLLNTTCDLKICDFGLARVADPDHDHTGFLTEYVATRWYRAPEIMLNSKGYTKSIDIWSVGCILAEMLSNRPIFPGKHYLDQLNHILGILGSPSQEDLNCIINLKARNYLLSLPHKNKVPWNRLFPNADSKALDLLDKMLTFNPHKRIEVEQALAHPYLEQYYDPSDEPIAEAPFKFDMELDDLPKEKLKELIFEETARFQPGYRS

SMILES	IC50 [2] [µM]	IC50 (MCF7 [5]) [µM]	inhibition of growth at 5 µM (A549 [7]) [%]	inhibition of growth at 5 µM (MCF7 [8]) [%]	inhibition of growth at 5 µM 5637 [9] [%]	inhibition of growth at 5 µM (HepG2 [10]) [%]	also measured
O=C(N[C@@H](Cc1ccccc1)Cn1c[n+](Cc2cccc3ccccc23)c2ccccc21)c1ccccc1	> 10						IC50 [1]: > 10 µM
O=c1[nH]cc(F)c(=O)[nH]1 [FLUOROURACIL]		6					IC50 (4T1 [3]): > 10 µM; IC50 (HepG2 [4]): > 10 µM; IC50 (HCC1937): 5.67 µM; IC50 5637 [6]: 7.4 µM; IC50 (MDA-MB-468): > 10 µM; IC50 (MCF-10A): > 10 µM
O=C(N[C@@H](Cc1ccccc1)Cn1cnc2ccccc21)c1ccccc1	> 10						IC50 [1]: > 10 µM
CC[C@@H](C)[C@@H](Cn1cc[n+](Cc2ccccc2)c1)NC(=O)Nc1cc(C(F)(F)F)cc(C(F)(F)F)c1	0.483		8.36	86.9	85.6	47.2	
Cc1n(C[C@@H](NC(=O)Nc2cc(C(F)(F)F)cc(C(F)(F)F)c2)C(C)C)cc[n+]1Cc1ccccc1	0.535		7.87	7.92	21.1	-4.95	
CC(=O)N[C@@H](Cc1ccccc1)Cn1c[n+](Cc2cccc3ccccc23)c2ccccc21	> 10						IC50 [1]: > 10 µM
CC(=O)N[C@@H](Cc1ccccc1)Cn1cnc2ccccc21	> 10						IC50 [1]: > 10 µM
CC(C)[C@@H](Cn1cc[n+](Cc2ccccc2)c1)NC(=O)Nc1cc(C(F)(F)F)cc(C(F)(F)F)c1	0.606		7.18	55.7	31.5	24.5	
Cc1n(C[C@H](Cc2ccccc2)NC(=O)Nc2cc(C(F)(F)F)cc(C(F)(F)F)c2)cc[n+]1Cc1ccccc1	0.376		2.07	40.5	12.8	20.8	
O=C(Nc1cc(C(F)(F)F)cc(C(F)(F)F)c1)N[C@@H](Cc1ccccc1)Cn1cc[n+](Cc2ccccc2)c1	0.272		9.26	82	61.9	38.1	
CC(C)Nc1cc(-c2c[nH]c(C(=O)N[C@H](CO)c3cccc(Cl)c3)c2)c(Cl)cn1 [ULIXERTINIB]		> 10					IC50 (A549 [11]): 5.39 µM; Activity (MCF7 [12]): Active; Activity (MCF7 [13]): Active; inhibition in vivo at 50 mg/kg (4T1 [14]): 26.9%; Activity (MCF7 [15]): inactive; Activity (MCF7 [16]): inactive; IC50 (4T1 [3]): > 10 µM; IC50 (HepG2 [4]): 6.12 µM; IC50 (HCC1937): > 10 µM; IC50 5637 [6]: > 10 µM; Activity (MCF7 [17]): Active; IC50 (MDA-MB-468): > 10 µM; IC50 (MCF-10A): > 10 µM; Activity (MCF7 [18]): Active
CC(C)[C@@H](Cn1c[n+](Cc2ccccc2)c2ccccc21)NC(=O)Nc1cc(C(F)(F)F)cc(C(F)(F)F)c1	0.285	3.37	30.2	91.9	56.5	39.5	
CC[C@@H](C)[C@@H](Cn1cc(C(F)(F)F)[n+](Cc2ccccc2)c1)NC(=O)Nc1cc(C(F)(F)F)cc(C(F)(F)F)c1	0.507	3.48	23.5	100	96.8	13.9	IC50 5637 [6]: 3.47 µM
CC[C@@H](C)[C@@H](Cn1c[n+](Cc2ccccc2)c2ccccc21)NC(=O)Nc1cc(C(F)(F)F)cc(C(F)(F)F)c1	0.283	2.68	97.8	100	99.5	100	IC50 (A549 [11]): 3.92 µM; IC50 (HepG2 [4]): 2.33 µM; IC50 5637 [6]: 2.94 µM
O=C(Nc1cc(C(F)(F)F)cc(C(F)(F)F)c1)N[C@@H](Cc1ccccc1)Cn1c[n+](Cc2ccccc2)c2ccccc21	0.206	1.55	50.6	99.5	56.8	35.3	
CC[C@@H](C)[C@@H](Cn1cc[n+](Cc2ccccc2)c1C)NC(=O)Nc1cc(C(F)(F)F)cc(C(F)(F)F)c1	0.406		8.26	64	17.6	71.3	
O=C(Nc1cc(C(F)(F)F)cc(C(F)(F)F)c1)N[C@@H](Cc1ccccc1)Cn1cc(C(F)(F)F)[n+](Cc2ccccc2)c1	0.297		13.5	19.4	26.4	31.2	
